Test [1] relates to GM3 expression on the cell surface, C32 human melanoma cells. Briefly: cell based phenotypic assay, cell surface GM3 by antibody mediated immunofluorescence, C32 (GM3 C32 IC50). Conditions: 50% inhibition of GM3 expression on the cell surface. The essentials:
(§1)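 Both lines undergo the phenotypic GM3 assay, and viability is recorded from that same cell-based run.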

The subject of test [2] is GM3 expression on the cell surface, B16 mouse melanoma cells. Briefly: cell based phenotypic assay, cell surface GM3 by antibody mediated immunofluorescence, B16 (GM3 B16 IC50). Conditions: 50% inhibition of GM3 expression on the cell surface. In short, it runs like this:
as §1

The target of test [3] is T1, glucosylceramide synthase (Homo sapiens, UniProt Q16739).
T1 construct: Microsomes were isolated from A375 human melanoma cells; endogenous in cells; host or cells: A375 human melanoma cells (microsomal fraction, 100,000 g pellet)
T1 sequence (Q16739 1-394): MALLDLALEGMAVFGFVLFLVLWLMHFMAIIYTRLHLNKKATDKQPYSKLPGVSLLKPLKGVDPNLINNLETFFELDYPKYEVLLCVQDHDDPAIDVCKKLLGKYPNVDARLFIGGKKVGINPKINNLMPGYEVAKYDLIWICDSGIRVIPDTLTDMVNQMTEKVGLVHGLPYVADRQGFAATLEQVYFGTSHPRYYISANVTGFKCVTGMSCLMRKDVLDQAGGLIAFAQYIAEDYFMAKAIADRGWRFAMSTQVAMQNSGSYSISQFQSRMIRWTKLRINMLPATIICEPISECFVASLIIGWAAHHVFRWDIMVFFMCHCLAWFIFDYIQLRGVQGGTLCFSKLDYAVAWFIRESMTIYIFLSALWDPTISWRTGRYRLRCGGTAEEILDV
Briefly: microsomal assay measuring conversion of ceramide to glucosylceramide by HPLC (GCS IC50). Format: biochemical. Conditions: concentration causing 50% inhibition of glucosylceramide synthase activity. The essentials: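 Microsomal preparation assayed for glucosylceramide synthase by direct HPLC measurement of ceramide conversion to glucosylceramide. GCS IC50 is the compound concentration giving 50% inhibition of enzyme activity.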

The next test has as its system C32 human melanoma cells. Briefly: cell viability in the C32 cell-based assay (Viability, C32 IC50). To be noted: concentration causing 50% cell death, values greater than 10 represent a lack of cell death. The essentials: (§2)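 Two melanoma lines, mouse B16 and human C32, were treated and surface GM3 quantified by antibody immunofluorescence for IC50. A parallel viability readout gives the concentration killing 50% of cells, with values over 10 indicating no cell death.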

The test system of a further test is B16 mouse melanoma cells. The test can be described thus: cell viability in the B16 cell-based assay (Viability, B16 IC50). The essentials:
as §2

[4] abbreviates: Homo sapiens, C32 human melanoma cells, read-out: GM3 C32 IC50.
Setting [5] is: Mus musculus, B16 mouse melanoma cells, read-out: GM3 B16 IC50.
Setting [6] is: Homo sapiens, C32, C32 cells, read-out: Viability, C32 IC50.
Setting [7] is: Mus musculus, B16, B16 cells, concentration causing 50% cell death, values greater than 10 represent a lack of cell death, read-out: Viability, B16 IC50.

pIC50: −log10 of the molar value. Where two headings read alike, the source gives them in different places. Bounds are passed on as bounds.

Turning to `CC(C)(NC(=O)OC1CN2CCC1CC2)c1ccc(-c2ccc(OCCC3COC3)cc2)cc1` (stereo not drawn) [Example 194, Quinuclidin-3-yl (2-(4′-(2-(oxetan-3-yl)ethoxy)-[1,1′-biphenyl]-4-yl)propan-2-yl)carbamate], the pIC50 is 8.39 in test [1] (Homo sapiens, read-out: GM3 C32 IC50, C32 human melanoma cells); 6.94 in test [2] (Mus musculus, read-out: GM3 B16 IC50, B16 mouse melanoma cells); 7.98 in test [3]; 6.00 in the test with C32 human melanoma cells (Homo sapiens, C32, read-out: Viability, C32 IC50, C32 cells); 5.00 in the test with B16 mouse melanoma cells (Mus musculus, B16, read-out: Viability, B16 IC50).

Regarding `COCCCc1ccc(-c2ccc(C(C)(C)NC(=O)NC3(C)CN4CCC3CC4)cc2)cc1` (stereo not drawn) [Example 222, 1-(2-(4′-(3-Methoxypropyl)-[1,1′-biphenyl]-4-yl)propan-2-yl)-3-(3-methylquinuclidin-3-yl)urea], the pIC50 in test [1] (setting [4]) was 9.12; in test [2] (setting [5]) it was 7.51; in test [3] it was 8.77; in the test with C32 human melanoma cells (setting [6]), at most 5.00; with B16 mouse melanoma cells (setting [7]), at most 5.00.

Turning to `COCCOc1ccc(-c2ccc(C3(NC(=O)NC4CN5CCC4CC5)CC3)cc2)cc1` (stereo not drawn) [Example 162, 1-(1-(4′-(2-Methoxyethoxy)-[1,1′-biphenyl]-4-yl)cyclopropyl)-3-(quinuclidin-3-yl)urea], the pIC50 in test [1] (setting [4]) was 8.66; in test [2] (setting [5]), 7.14; in test [3] it was 7.55; with C32 human melanoma cells (setting [6]), 6.00; in the test with B16 mouse melanoma cells (setting [7]) it was 5.45.

For `CC(C)(NC(=O)NC1(C)CN2CCC1CC2)c1ccc(Oc2ccc(C(=O)N3CCOCC3)cc2)cc1` (stereo not drawn) [Example 280, 1-(3-Methylquinuclidin-3-yl)-3-(2-(4-(4-(morpholine-4-carbonyl)phenoxy)phenyl)propan-2-yl)urea], the pIC50 is 7.31 in test [1] (setting [4]); 5.71 in test [2] (setting [5]); 6.79 in test [3]; 6.00 with C32 human melanoma cells (setting [6]); at most 5.00 in the test on B16 mouse melanoma cells (setting [7]).

Turning to `CC1(NC(=O)N2CCN(c3cccc(-c4ccccc4)c3)CC2)CCN2CCC1CC2` (stereo not drawn) [Example 16, 4-([1,1′-Biphenyl]-3-yl)-N-(4-methyl-1-azabicyclo[3.2.2]nonan-4-yl)piperazine-1-carboxamide], the pIC50 was 7.91 in test [1] (setting [4]); 6.74 in test [2] (setting [5]); 7.31 in test [3]; 6.00 in the test on C32 human melanoma cells (setting [6]); 5.17 with B16 mouse melanoma cells (setting [7]).

As to “2-(3-(3-(Methylcarbamoyl)phenoxy)phenyl)propan-2-ylcarbamate [Example 295]”, the pIC50 in test [1] (C32 human melanoma cells, read-out: GM3 C32 IC50) was 6.83; in test [2] (B16 mouse melanoma cells, read-out: GM3 B16 IC50) it was 5.76; in test [3], 5.99; in the test on C32 human melanoma cells (C32 cells, read-out: Viability, C32 IC50) it was at most 5.00; in the test on B16 mouse melanoma cells (B16 cells, concentration causing 50% cell death, values greater than 10 represent a lack of cell death, read-out: Viability, B16 IC50), at most 5.00.

Consider `CC1(NC(=O)C2CCN(c3cncc(-c4ccc(F)cc4)n3)CC2)CCN2CCC1CC2` (stereo not drawn) [Example 46, 1-(6-(4-Fluorophenyl)pyrazin-2-yl)-N-(4-methyl-1-azabicyclo[3.2.2]nonan-4-yl)piperidine-4-carboxamide], for which the negative-log IC50 (pIC50) in test [1] (setting [4]) was 9.37; in test [2] (setting [5]), 7.12; in test [3], 8.55; in the test on C32 human melanoma cells (setting [6]), 6.50; in the test on B16 mouse melanoma cells (setting [7]), 5.14.

`CC1(NC(=O)C2CCN(c3cncc(-c4ccc(F)cc4)n3)CC2)CN2CCC1CC2` (stereo not drawn) [Example 49, 1-(6-(4-Fluorophenyl)pyrazin-2-yl)-N-(3-methylquinuclidin-3-yl)piperidine-4-carboxamide]: the pIC50 in test [1] (setting [4]) is 9.09; in test [2] (setting [5]), 6.84; in test [3], 8.39; in the test with C32 human melanoma cells (setting [6]), 6.00; with B16 mouse melanoma cells (setting [7]) it was 5.09.

On to `COCCOc1ccc(-c2nc(N3CCC(C(=O)NC4(C)CCN5CCC4CC5)CC3)ncc2F)cc1` (stereo not drawn) [Example 56, 1-(5-Fluoro-4-(4-(2-methoxyethoxy)phenyl)pyrimidin-2-yl)-N-(4-methyl-1-azabicyclo[3.2.2]nonan-4-yl)piperidine-4-carboxamide], for which the pIC50 in test [1] (setting [4]) is 9.76; in test [2] (setting [5]), 7.68; in test [3], 8.33; in the test with C32 human melanoma cells (setting [6]) it was 5.13; in the test on B16 mouse melanoma cells (setting [7]), 5.17.
